In patent US6413734B1, “Method for judging effectiveness of drug having protease inhibitory activity” (Fuji Photo Film Co., LTD, priority 1999, dated 2002):

How the values were obtained:
[1] = test system: protease activity of breast cancer specimen; experiment: Gelatin digestion by breast cancer specimen collected by paracentesis and suction, pretreated with TIMP-1 and TIMP-2, on gelatin thin membrane; format: cell-based, human; settings: one breast cancer specimen suspended in buffer with 10 μg/ml of TIMP-1 and TIMP-2 together; 37° C., 16 hours
Method: Abreast cancer specimen collected by paracentesis and suction was suspended in a phosphate buffer containing 0.5% of polyvinylpyrrolidone, and adhered to a gelatin thin membrane disclosed in WO97/32035 by using a cytospin apparatus of Shandon Co., Ltd. at a speed of 400 rpm. The membrane thickness of gelatin was 7 μm. The gelatin membrane was incubated at 37° C. for 16 hours under 100% of relative humidity, and then dried in air. A solution in which Ponceau 3R was dissolved at a concentration of 0.8% in 6% trichloroacetic acid aqueous solution was used as a staining solution. The membrane was immersed in the solution at room temperature for 20 seconds for staining. […]
A breast cancer specimen collected by paracentesis and suction was suspended in a phosphate buffer containing 0.5% of polyvinylpyrrolidone and 10 μg/ml of TIMP-1 (tissue inhibitor of metalloproteinase-1) and TIMP-2, and adhered to a gelatin thin membrane disclosed in WO97/32035 by using a cytospin apparatus of Shandon Co., Ltd. at a speed of 400 rpm. […] When traces of digestion were detected in the same manner except for the treatments with TIMP-1 and TIMP-2 as a control, presence of distinct traces of digestion was observed.

[2] = test system: Protease activity of breast cancer specimens; experiment: Protease activity measurement of frozen breast cancer slices on gelatin thin membranes containing a matrix metalloproteinase inhibitor; format: biochemical, human; settings: 20 breast cancer specimens; inhibitor contained in gelatin thin membrane; 37° C., 16 hours
Method: A breast cancer specimen, which was extracted by surgical operation and frozen, was sliced at −25° C. into slices having a thickness of 4 μm by using a cryostat, and adhered to a gelatin thin membrane disclosed in WO97/32035. The thickness of gelatin was 7 μm. This gelatin membrane was incubated at 37° C. for 16 hours under 100% of relative humidity, and then dried in air. A solution obtained by mixing a solution in which Ponceau 3R was dissolved at a concentration of 0.8% in 6% trichloroacetic acid aqueous solution and ethanol at a volume ratio of 3:7 was used as a staining solution. The membrane was immersed in the solution at room temperature for 4 minutes for staining. After the membrane was washed with water for 10 minutes, the membrane was then immersed in a Mayer's hematoxylin solution for 2 minutes for nuclear staining, and further washed with water for 10 minutes and dried in air. After the drying, a Cover Aid Film (Sakura Seiki Co., Ltd.) was adhered to the membrane using xylene to enclose the breast cancer slice. The film was held on a plastic mount and observed under an optical microscope. […]
Protease activity of breast cancer specimens, which were extracted by surgical operation and then frozen, was measured in the same manner as Example 1 using gelatin thin membranes containing a matrix metalloproteinase inhibitor (1,10-phenanthroline) disclosed in WO97/32035. […]

“TIMP-1: tissue inhibitor of metalloproteinase-1” was tested, and the “Gelatin digestion on sites where the cancer cells were present” value [1] was “not observed”.

For `c1cnc2c(c1)ccc1cccnc12` [1,10-phenanthroline], the “Protease activity (traces of digestion on gelatin thin membrane)” value [2] was “suppressed in all specimens”.
